From the supplement of paper PMC10307832

Columns and labels:
Assay in all cases: relative viability (nuclei count vs DMSO), 5 days (fraction); higher = more cells survive
[1] = compound: C(C(=O)C(=O)O)Br [Bromopyruvate] + Cc1cc(Nc2cc(N3CCN(C)CC3)nc(Sc3ccc(NC(=O)C4CC4)cc3)n2)n[nH]1 [Tozasertib] (partner 0.1 µM)
In short: (§1)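 Five library-drug doses in √10 steps were combined with a fixed anchor-drug dose, or a single drug was given alone, by pin tool to lung cancer cell lines in 1536-well plates the day after seeding. Nuclei were stained and counted after 5 days. Relative viability is the nuclei count in treated wells over that in vehicle wells, taken as the median of duplicate plates.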

[2] = compound: CC(O)(CS(=O)(=O)c1ccc(F)cc1)C(=O)Nc1ccc(C#N)c(C(F)(F)F)c1 [Bicalutamide] + CS(=O)(=O)CCNCc1ccc(-c2ccc3ncnc(Nc4ccc(OCc5cccc(F)c5)c(Cl)c4)c3c2)o1 [Lapatinib] (partner 2 µM)
In short: as §1

[3] = compound: CC(O)(CS(=O)(=O)c1ccc(F)cc1)C(=O)Nc1ccc(C#N)c(C(F)(F)F)c1 [Bicalutamide] + CC(C)C[C@H](NC(=O)[C@H](Cc1ccccc1)NC(=O)c1cnccn1)B(O)O [Bortezomib] (partner 0.002 µM)
In short: as §1

[4] = compound: C(C(=O)C(=O)O)Br [Bromopyruvate] + N=C(N)NC(=N)NCCc1ccccc1 [Phenformin] (partner 250 µM)
In short: as §1

Cell Line	relative viability ([1]; first compound 1 µM)	relative viability ([1]; first compound 3.162 µM)	relative viability ([1]; first compound 10 µM)	relative viability ([1]; first compound 31.62 µM)	relative viability ([1]; first compound 100 µM)	relative viability ([2]; first compound 0.08 µM)	relative viability ([2]; first compound 0.253 µM)	relative viability ([2]; first compound 0.8 µM)	relative viability ([2]; first compound 2.53 µM)	relative viability ([3]; first compound 0.08 µM)	relative viability ([3]; first compound 0.253 µM)	relative viability ([3]; first compound 0.8 µM)	relative viability ([3]; first compound 2.53 µM)	relative viability ([4]; first compound 1 µM)	relative viability ([4]; first compound 3.162 µM)	relative viability ([4]; first compound 10 µM)	relative viability ([4]; first compound 31.62 µM)	relative viability ([4]; first compound 100 µM)
HCC-366	0.136	0.142	0.0931	0.12	0.0884	1.09	1.05	1.12	1	1.04	1.02	1.43	1.04	0.592	0.649	0.635	0.597	0.648
HCC-827	0.375	0.391	0.386	0.421	0.435	0.171	0.178	0.171	0.193	1.12	0.964	1.04	0.98	0.438	0.43	0.395	0.389	0.413
HOP-62	0.39	0.386	0.381	0.339	0.351	1.13	0.995	1.05	1.07	0.683	0.527	0.725	0.92	0.704	0.643	0.645	0.737	0.696
LC-2-ad	0.45	0.475	0.486	0.438	0.428	0.851	0.873	1.08	0.957	1.07	1.05	0.997	1.01	0.564	0.621	0.576	0.599	0.525
LCLC-97TM1	0.195	0.206	0.212	0.182	0.128	0.857	0.971	1.1	1	0.726	0.543	0.635	0.461	0.411	0.397	0.359	0.439	0.415
LOU-NH91	0.729	0.643	0.654	0.685	0.672	0.816	0.638	0.856	0.752	0.53	0.493	0.441	0.523	0.759	0.77	0.74	0.74	0.747
LU99A	0.344	0.253	0.285	0.233	0.325	0.958	0.847	1.28	0.798	0.995	0.964	1.24	0.846	0.751	0.753	0.89	0.921	0.794
LXF-289	0.184	0.179	0.213	0.152	0.172	0.92	0.845	0.991	0.877	0.98	0.908	1.02	0.963	0.525	0.537	0.516	0.504	0.531
NCI-H23	0.347	0.388	0.361	0.291	0.105	1.07	0.987	1.38	0.843	0.964	1.03	1.49	0.786	0.778	0.842	0.837	0.809	0.857
NCI-H322M	0.433	0.546	0.495	0.461	0.484	0.576	0.602	0.664	0.572	1.13	1.32	1.4	1.35	0.727	0.756	0.809	0.796	0.784
NCI-H460	0.432	0.485	0.426	0.424	0.335	1.08	0.881	–	0.972	1.15	1.09	1.35	1.12	0.512	0.556	0.658	0.494	0.508
NCI-H520	0.467	0.448	0.395	0.422	0.328	0.817	0.674	1.01	0.779	0.576	0.391	0.96	0.432	0.646	0.648	0.623	0.702	0.473
NCI-H596	0.83	0.943	1.1	0.878	0.412	1.02	1.17	1.16	1.18	1.19	1.11	1.01	1.04	0.694	0.724	0.501	0.695	0.822
NCI-H647	0.289	0.221	0.29	0.298	0.389	1.07	0.954	1.75	0.748	0.973	0.96	1.4	0.903	0.5	0.637	0.578	0.494	0.494
NCI-H650	0.656	0.756	0.804	0.714	0.698	1.04	1.07	1.07	0.644	0.907	0.87	0.918	0.553	0.532	0.45	0.414	0.462	0.47
NCI-H661	0.35	0.361	0.335	0.348	0.362	0.482	0.493	0.447	0.493	0.84	0.931	0.81	0.849	0.294	0.263	0.237	0.287	0.276
NCI-H727	0.593	0.745	0.644	0.591	0.535	0.945	0.763	1.09	0.77	0.884	0.709	0.968	0.626	0.607	0.778	0.578	0.622	0.527
NCI-H838	0.268	0.291	0.305	0.242	0.293	1.09	0.881	1.38	0.734	0.715	0.626	1.28	0.624	0.557	0.604	0.656	0.603	0.555

Cell Line	relative viability ([1]; first compound 1 µM)	relative viability ([1]; first compound 3.162 µM)	relative viability ([1]; first compound 10 µM)	relative viability ([1]; first compound 31.62 µM)	relative viability ([1]; first compound 100 µM)	relative viability ([2]; first compound 0.08 µM)	relative viability ([2]; first compound 0.253 µM)	relative viability ([2]; first compound 0.8 µM)	relative viability ([2]; first compound 2.53 µM)	relative viability ([3]; first compound 0.08 µM)	relative viability ([3]; first compound 0.253 µM)	relative viability ([3]; first compound 0.8 µM)	relative viability ([3]; first compound 2.53 µM)	relative viability ([4]; first compound 1 µM)	relative viability ([4]; first compound 3.162 µM)	relative viability ([4]; first compound 10 µM)	relative viability ([4]; first compound 31.62 µM)	relative viability ([4]; first compound 100 µM)
NCI-H1355	0.529	0.577	0.516	0.548	0.574	1	0.902	0.974	1.03	1.21	1.07	1.43	1.1	0.473	0.481	0.442	0.483	0.504
NCI-H1437	0.384	0.414	0.447	0.397	0.451	0.826	0.736	1.01	0.711	0.493	0.372	0.759	0.455	0.339	0.293	0.398	0.281	0.288
NCI-H1650	0.441	0.489	0.362	0.504	0.241	0.905	0.655	1.09	0.74	0.172	0.204	0.192	0.175	0.414	0.429	0.475	0.449	0.291
NCI-H1651	0.634	0.718	0.665	0.701	0.652	0.731	0.744	1.07	0.788	0.917	0.864	1.04	0.959	0.323	0.345	0.429	0.331	0.349
NCI-H1666	0.644	0.722	0.543	0.603	0.51	0.733	0.652	0.815	0.662	0.808	0.802	1	0.949	0.598	0.582	0.606	0.605	0.496
NCI-H1734	0.243	0.247	0.307	0.244	0.216	1.18	0.904	1.25	0.971	1.01	0.843	1.12	0.915	0.342	0.471	0.513	0.392	0.385
NCI-H1755	0.59	0.568	0.495	0.702	0.693	1.03	1.06	1.05	0.928	0.97	0.892	0.938	0.895	0.648	0.609	0.599	0.642	0.71
NCI-H1915	0.438	0.455	0.445	0.444	0.392	0.933	0.933	1.06	0.882	0.962	0.944	1.11	0.909	0.363	0.371	0.378	0.379	0.383
NCI-H1975	0.733	0.811	0.806	0.729	0.646	0.851	0.854	1.12	0.785	0.314	0.296	0.417	0.372	0.431	0.443	0.439	0.407	0.367
NCI-H1993	0.626	0.629	0.697	0.578	0.598	–	0.897	0.732	0.854	–	0.897	1.31	1.12	0.492	0.488	0.547	0.495	0.501
NCI-H2009	0.743	0.78	0.767	0.723	0.444	1.23	0.997	1.2	0.758	1.26	1.03	1.16	0.88	0.476	0.493	0.507	0.475	0.344
NCI-H2023	0.31	0.4	0.348	0.482	0.39	0.727	0.866	1.21	0.648	1.09	0.932	1.11	0.8	0.39	0.415	0.478	0.419	0.429
NCI-H2085	0.821	0.917	0.84	0.558	0.311	0.776	0.739	0.839	0.704	1.14	0.944	1.08	0.996	0.693	0.757	0.84	0.749	0.698
NCI-H2087	0.237	0.284	0.234	0.269	0.258	1.24	1.01	1.15	1	0.785	0.825	1.04	0.75	0.493	0.445	0.578	0.414	0.392
NCI-H2126	0.881	0.858	0.825	0.879	0.783	0.686	0.697	0.74	0.753	1.12	1.09	1.08	1.06	0.556	0.534	0.518	0.54	0.513
NCI-H2228	0.241	0.252	0.239	0.284	0.248	0.707	1.04	1.23	1.02	1.07	1.11	1.31	1.11	0.341	0.418	0.178	0.285	0.334
NCI-H2347	0.69	0.534	0.715	0.479	0.609	1.11	0.935	0.989	0.784	1.21	0.989	1.4	0.903	0.463	0.35	0.572	0.312	0.566
NCI-H2405	0.806	0.779	0.723	0.804	0.785	1.2	1.01	1.16	0.852	1.02	1.01	1.05	0.986	0.403	0.432	0.421	0.354	0.388
